Test results reported in patent publication US20210077567A1, “Targeted Angiotensin 1-7 Peptide Conjugates and Formation and Use Thereof” (IDAHO STATE UNIVERSITY, priority 2019, published 2021).
Marks after values point to notes of the source that are not given here.

Columns and labels:
[1] = Stability of the conjugate in solution by HPLC-UV; assay type: physicochemical
Method: At 1, 3, 7, 10, 15, 30 days; 100 μL of the solutions were sampled and after adding stable Ang II as internal standard samples analyzed by HPLC-UV to monitor the stability of the conjugate over time. Table 3, below, provides the percent of the Ang peptide conjugate remaining in each sample after storage for 4 weeks.

osteosarcoma tumors = assay: Osteosarcoma tumor-bearing mouse model, tumor size; assay type: in vivo, mice; conditions: s.c. twice daily, equivalent dose of Ang 1-7 of 400 μg/kg, three weeks; FIG. 13
Method: The Ang peptide conjugate described in Example 1 was examined for inhibition of the RAS in an advanced form of osteosarcoma. For the in vivo study, a group of mice bearing osteosarcoma tumors was divided into three different groups and subcutaneously dosed twice daily with vehicle (PEG 400: normal Saline, 3:2), Ang 1-7, or Ang peptide conjugate (equivalent dose of Ang 1-7 of 400 μg/kg) for three weeks. The tumor size was measured three times a week. Tumor tissues were harvested and kept in appropriate medium in −80° C. for further analysis of different cancer biomarkers.

[2] = Tissue distribution of radiolabeled peptides; assay type: in vivo; conditions: rats, i.v. or s.c.; FIG. 9
Method: (§1) Pharmacokinetic studies were conducted using rats for calculation of biological half-life and other pharmacokinetic parameters of the conjugates in comparison with native peptides. The tissue distribution of conjugates was conducted on main organs, such as bone (major target), heart, liver, kidney, lung, etc.

[3] = tested on: mRNA of RAS components (ACE, ACE2, AT1R, Mas receptor) in cancer cell line HSSY1; assay: Quantitative PCR of RAS component gene expression; assay type: cell-based; conditions: FIG. 12
Text: (§2) The viability of several different cancer cell lines including FUUR1, MoJo, SYO1, and the sarcoma cell line HSSY1 using the MTT assay across multiple concentrations and time points and compared with native Ang 1-7 as positive control and Ang II as negative control. The impact of Mas receptor activation by Ang peptide conjugate on gene expression of different components of the RAS, such as ACE1, ACE2, AT1R. Mas receptor was also studied using quantitative PCR using the different cancerous cell lines.

[4] = tested on: cardiac ACE2, ACE and Mas receptor expression; assay: Cardiac RAS component expression in adjuvant-induced arthritis rats; assay type: in vivo; conditions: for cardiac ACE2/ACE ratio: preventive treatment, FIG. 16, 17; for cardiac Mas receptor expression: treatment after establishment of inflammation, FIG. 18, 19
Method: (§3) On day one, for induction of adjuvant arthritis, male Sprague Dawley rats were injected at the tail base with 0.2 mL of 50 mg/mL Mycobacterium butyricum. Arthritic animals were divided into 4 groups and treated with saline, Ang II, Ang 1-7 or Ang peptide conjugate. A group of healthy rats received vehicle as control group. Preventive and treatment groups subcutaneously received 200 μg/kg equitant dose daily from day one for 3 weeks or after emergence of arthritis for 1 week, respectively. Animals were monitored daily for their body weight, paw and joint diameters. Animals were then euthanized, plasma/tissues were harvested and analyzed for plasma nitric oxide (NO), and the RAS components.

[5] = tested on: synovial sarcoma cell lines SYO1 and MoJo, renal carcinoma cell line FUUR1; assay: In vitro cell viability / anti-proliferative activity on cancer cell lines (Example 1); assay type: cell-based; conditions: various concentrations, FIG. 6-8
Method: Upon confirmation of final chemical structure of the active conjugates, the anti-proliferative activity was tested using different cancer cell lines, including synovial sarcoma cell lines SYO1 and MoJo, and the renal carcinoma cell line FUUR1. Results comparing the percent viability of the tested cell lines upon incubation with AngII, Ang1-7, or the Ang peptide conjugate are provided in FIG. 6 (SYO1), FIG. 7 (MoJo) and FIG. 8 (FUUR1). The cell lines were incubated with concentrations of the tested materials at various concentrations, as shown.

[6] = Pharmacokinetic study, plasma half-life; assay type: in vivo, rats
Method: as §1

[7] = tested on: FUUR1, MoJo, SYO1 and HSSY1 cancer cell lines; assay: MTT viability/proliferation assay on cancer cell lines (Example 2); assay type: cell-based; conditions: all cell lines tested (FUUR1, MoJo, SYO1, HSSY1); multiple concentrations; FIG. 11
Text: as §2

[8] = tested on: adjuvant-induced arthritis; assay: Adjuvant-induced arthritis rat model (body weight, paw and joint diameters, plasma NO); assay type: in vivo, male Sprague Dawley rats; conditions: for inflammation and swelling of paws and joints (in words): preventive and treatment groups; for Mean body weight (SD); body weight gain (%) compared with day 1 / Mean body weight (SD); body weight gain (%) after 7 days of dosing: inflamed animals
Method: as §3, with “The Ang peptide conjugate described in Example 1 was examined for anti-inflammatory effect on adjuvant-induced arthritis in a rat animal model. On” for “On”

[9] = preventive arm, compared with day 1
[10] = treatment arm, after 7 days of dosing

Ang peptide conjugate: Ang 1-7 peptide bonded at N-terminus to 27-mer mono-disperse PEG(maleimide)2 spacer conjugated with a thiol-bisphosphonate
percent of conjugate remaining ([1]; Acetate buffer (pH 5.5), 4 °C, 5 days): 98.4%
percent of conjugate remaining ([1]; Acetate buffer (pH 5.5), 4 °C, 28 days): 98.0%
percent of conjugate remaining ([1]; Acetate buffer (pH 5.5), 25 °C, 5 days): 94.3%
percent of conjugate remaining ([1]; Acetate buffer (pH 5.5), 25 °C, 28 days): 93.3%
percent of conjugate remaining ([1]; Acetate buffer (pH 5.5), −20 °C, 5 days): 99.8%
percent of conjugate remaining ([1]; Acetate buffer (pH 5.5), −20 °C, 28 days): 99.5%
percent of conjugate remaining ([1]; D. D. Water (pH 6.5), 4 °C, 5 days): 95.9%
percent of conjugate remaining ([1]; D. D. Water (pH 6.5), 4 °C, 28 days): 92.4%
percent of conjugate remaining ([1]; D. D. Water (pH 6.5), 25 °C, 5 days): 90.6%
percent of conjugate remaining ([1]; D. D. Water (pH 6.5), 25 °C, 28 days): 64.0%
percent of conjugate remaining ([1]; D. D. Water (pH 6.5), −20 °C, 5 days): 99.5%
percent of conjugate remaining ([1]; D. D. Water (pH 6.5), −20 °C, 28 days): 99.1%
percent of conjugate remaining ([1]; Phosphate buffer (pH 7.4), 4 °C, 5 days): 91.9%
percent of conjugate remaining ([1]; Phosphate buffer (pH 7.4), 4 °C, 28 days): 79.2%
percent of conjugate remaining ([1]; Phosphate buffer (pH 7.4), 25 °C, 5 days): 72.8%
percent of conjugate remaining ([1]; Phosphate buffer (pH 7.4), 25 °C, 28 days): 22.6%
percent of conjugate remaining ([1]; Phosphate buffer (pH 7.4), −20 °C, 5 days): 99.2%
percent of conjugate remaining ([1]; Phosphate buffer (pH 7.4), −20 °C, 28 days): 98.9%
tumor growth inhibition (osteosarcoma tumors): potently inhibited tumor growth after 3-4 days
tissue distribution compared with native peptides [2]: higher affinity to thyroid and bone
ACE2 gene expression [3]: significantly higher
ACE gene expression [3]: enhanced to some level
AT1R gene expression [3]: enhanced to some level
Mas receptor gene expression [3]: significantly higher
cardiac ACE2/ACE ratio [4]: restored this balance
cardiac Mas receptor expression [4]: restored this balance
cell viability compared with native peptides [5]: superior activity
increase in plasma half-life as compared to the native peptide ([6]; after intravenous administration): 10 fold
increase in half-life as compared to the native peptide ([6]; after subcutaneous injection): 15 fold
half-life compared with native peptides ([6]; rats, FIG. 10): longer half-life
effect on cell proliferation [7]: anti-proliferative effect was more pronounced
inflammation and swelling of paws and joints (in words) [8]: reduced the inflammation and swelling to a comparable level with the control group
Difference vs. Inf- Vehicle in body weight gain (%) [8, 9]: 6.22%
Mean body weight (SD); body weight gain (%) compared with day 1 ([8]; preventive arm): 15.1 (12.0) %
plasma level of NO ([8]; preventive arm, 200 μg/kg s.c. daily from day one for 3 weeks, FIG. 14): reduce the elevated plasma level of NO
Difference vs. Inf- Vehicle in body weight gain (%) [8, 10]: 3.0%
Mean body weight (SD); body weight gain (%) after 7 days of dosing ([8]; treatment arm): 7.3 (4.3) * %
plasma level of NO ([8]; treatment arm, 200 μg/kg s.c. daily for 1 week after emergence of arthritis, FIG. 15): reduce the elevated plasma level of NO

Angiotensin 1-7 (DRVYIHP) [Ang 1-7, reference compound]
tumor growth inhibition (osteosarcoma tumors): milder effect after 10 days
ACE2 gene expression [3]: did not significantly change
ACE gene expression [3]: very large effect
AT1R gene expression [3]: did not significantly change
Mas receptor gene expression [3]: did not significantly change
cardiac ACE2/ACE ratio [4]: restored this balance
cardiac Mas receptor expression [4]: restored this balance
effect on cell proliferation [7]: significant concentration dependent decrease on cell proliferation
inflammation and swelling of paws and joints (in words) [8]: reduced the inflammation and swelling to a comparable level with the control group
Difference vs. Inf- Vehicle in body weight gain (%) [8, 9]: 4.78%
Mean body weight (SD); body weight gain (%) compared with day 1 ([8]; preventive arm): 13.6 (8.8) %
Difference vs. Inf- Vehicle in body weight gain (%) [8, 10]: 5.7%
Mean body weight (SD); body weight gain (%) after 7 days of dosing ([8]; treatment arm): 10.0 (4.8) * %

Angiotensin II (DRVYIHPF; Angiotensin-2; UniProt P01019 25-32, looked up) [Ang II, native Angiotensin II peptide, pro-inflammatory agent, negative control]
effect on cell proliferation [7]: remarkable proliferative effect
inflammation and swelling of paws and joints (in words) [8]: made the situation worse
Difference vs. Inf- Vehicle in body weight gain (%) [8, 9]: 4.32%
Mean body weight (SD); body weight gain (%) compared with day 1 ([8]; preventive arm): 13.2 (3.1) %
